Data reported in US10202367B2, “Heterocyclic compounds and methods of use thereof” (priority 2014, dated 2019).

Test system: HCVcc-RLuc
Assay: HCVcc-RLuc assay, combination of compound 3 with anti-HCV drugs (CalcuSyn / MacSynergy II)
Assay type: cell-based, Hepatitis C virus
Details: not given

Row | Molecule | CalcuSyn CI value (combination index) | CalcuSyn synergy volume (level of synergy) | MacSynergy synergy volume (level of synergy)
1 | COC(=O)N[C@H](C(=O)N1CCC[C@H]1c1nc(-c2ccc(-c3ccc(-c4c[nH]c([C@@H]5CCCN5C(=O)[C@@H](NC(=O)OC)C(C)C)n4)cc3)cc2)c[nH]1)C(C)C [Daclatasvir] | 0.510 | +++ (key: +/−: nearly additive (0.9 < CI < 1.1); ++: moderate synergy (0.7 < CI < 0.85); +++: synergy (0.3 < CI < 0.7)) | 
2 | NC(=O)c1ncn([C@@H]2O[C@H](CO)[C@@H](O)[C@H]2O)n1 [Ribavirin] | 0.770 | ++ (key: +/−: nearly additive (0.9 < CI < 1.1); ++: moderate synergy (0.7 < CI < 0.85); +++: synergy (0.3 < CI < 0.7)) | +++ (key: ++: moderate synergy (5 < log volume < 9); +++: strong synergy (log volume > 9))
3 | CCC[C@H](NC(=O)[C@@H]1[C@H]2CCC[C@H]2CN1C(=O)[C@@H](NC(=O)[C@@H](NC(=O)c1cnccn1)C1CCCCC1)C(C)(C)C)C(=O)C(=O)NC1CC1 [Telaprevir] | 0.775 | ++ (key: +/−: nearly additive (0.9 < CI < 1.1); ++: moderate synergy (0.7 < CI < 0.85); +++: synergy (0.3 < CI < 0.7)) | +++ (key: ++: moderate synergy (5 < log volume < 9); +++: strong synergy (log volume > 9))
4 | IFN-α | 0.545 | +++ (key: +/−: nearly additive (0.9 < CI < 1.1); ++: moderate synergy (0.7 < CI < 0.85); +++: synergy (0.3 < CI < 0.7)) | 

Same assay, conditions: tested drug combined with compound 3 (SID 144187742)

Row | Molecule | CalcuSyn synergy volume (level of synergy)
5 | C[C@@]1(O)[C@H](O)[C@@H](CO)O[C@H]1n1ccc(N)nc1=O [2′-C-methylcytidine] | +/− (nearly additive (0.9 < CI < 1.1))

Same assay, conditions: tested drug combined with compound 3 (SID 144187742) at or near their EC50 values; mean ± SEM, n ≥ 6

Row | Molecule | CalcuSyn CI value (combination index)
6 | C[C@@]1(O)[C@H](O)[C@@H](CO)O[C@H]1n1ccc(N)nc1=O [2′-C-methylcytidine] | 1.10

Same assay, conditions: tested drug combined with compound 3; Bliss independence model, MacSynergy II

Row | Molecule | MacSynergy synergy volume (level of synergy)
7 | C[C@@]1(O)[C@H](O)[C@@H](CO)O[C@H]1n1ccc(N)nc1=O [2′-C-methylcytidine] | +++ (strong synergy (log volume > 9))

Test system: not listed separately
Assay: Aqueous solubility in PBS
Assay type: physicochemical
Details: not given

Row | Sol. | Molecule
8 | >71.0 µg/mL | Cc1cc(C)cc(-c2nc(CN3CCC(C(=O)NCCCN4C[C@H](C)C[C@H](C)C4)CC3)c(C)o2)c1 [Compound 4]
9 | >71.0 µg/mL | Cc1ccccc1-c1nc(CN2CCC(C(=O)NCCCN3CCC(C(C)C)CC3)CC2)c(C)o1 [Compound 5]
10 | >67.0 µg/mL | Cc1ccccc1-c1nc(CN2CCC(C(=O)NCCCN3CCCC(C)C3)CC2)c(C)o1 (centres unmarked) [Compound 6]
11 | >65.0 µg/mL | Cc1ccccc1-c1nc(CN2CCC(C(=O)NCCCN3CCCCC3)CC2)c(C)o1 [Compound 9]
12 | >67.0 µg/mL | Cc1ccccc1-c1nc(CN2CCC(C(=O)NCCCN3CCC(C)CC3)CC2)c(C)o1 [Compound 10]
13 | >65.0 µg/mL | Cc1ccccc1-c1nc(CN2CCC(C(=O)NCCCN3CCOCC3)CC2)c(C)o1 [Compound 12]
14 | >71.0 µg/mL | Cc1ccccc1-c1nc(CN2CCC(C(=O)N3CCN(C4CCN(C)CC4)CC3)CC2)c(C)o1 [Compound 13]
15 | >67.0 µg/mL | Cc1ccccc1-c1nc(CN2CCC(C(=O)N3CCN(CCN(C)C)CC3)CC2)c(C)o1 [Compound 14]
16 | >72.0 µg/mL | Cc1oc(-c2ccccc2Cl)nc1CN1CCC(C(=O)NCCCN2C[C@H](C)C[C@H](C)C2)CC1 [Compound 15]
17 | >72.0 µg/mL | Cc1oc(-c2ccc(Cl)cc2)nc1CN1CCC(C(=O)NCCCN2C[C@H](C)C[C@H](C)C2)CC1 [Compound 16]
18 | 55.9 µg/mL | CCc1ccccc1-c1nc(CN2CCC(C(=O)NCCCN3C[C@H](C)C[C@H](C)C3)CC2)c(C)o1 [Compound 17]
19 | >69.0 µg/mL | Cc1cccc(-c2nc(CN3CCC(C(=O)NCCCN4C[C@H](C)C[C@H](C)C4)CC3)c(C)o2)c1 [Compound 18]
20 | >69.0 µg/mL | Cc1ccc(-c2nc(CN3CCC(C(=O)NCCCN4C[C@H](C)C[C@H](C)C4)CC3)c(C)o2)cc1 [Compound 19]
21 | >67.0 µg/mL | Cc1ccccc1-c1nc(CN2CCC(C(=O)NCCN3C[C@H](C)C[C@H](C)C3)CC2)c(C)o1 [Compound 20]
22 | >71.0 µg/mL | Cc1ccccc1-c1nc(CN2CCC(C(=O)NCCCCN3C[C@H](C)C[C@H](C)C3)CC2)c(C)o1 [Compound 21]
23 | >71.0 µg/mL | Cc1ccc(-c2nc(CN3CCC(C(=O)NCCCN4C[C@H](C)C[C@H](C)C4)CC3)c(C)o2)cc1C [Compound 22]
24 | 55.9 µg/mL | Cc1cccc(C)c1-c1nc(CN2CCC(C(=O)NCCCN3C[C@H](C)C[C@H](C)C3)CC2)c(C)o1 [Compound 23]
25 | >72.0 µg/mL | Cc1oc(-c2cccc(Cl)c2)nc1CN1CCC(C(=O)NCCCN2C[C@H](C)C[C@H](C)C2)CC1 [Compound 24]
26 | >72.0 µg/mL | Cc1oc(-c2c(F)cccc2F)nc1CN1CCC(C(=O)NCCCN2C[C@H](C)C[C@H](C)C2)CC1 [Compound 30]
27 | >74.0 µg/mL | Cc1oc(-c2cccc3ccccc23)nc1CN1CCC(C(=O)NCCCN2C[C@H](C)C[C@H](C)C2)CC1 [Compound 31]
28 | >71.0 µg/mL | Cc1ccc(-c2nc(CN3CCC(C(=O)NCCCN4C[C@H](C)C[C@H](C)C4)CC3)c(C)o2)c(C)c1 [Compound 32]
29 | >75.0 µg/mL | Cc1oc(-c2c(F)cccc2Cl)nc1CN1CCC(C(=O)NCCCN2C[C@H](C)C[C@H](C)C2)CC1 [Compound 33]
30 | 56.1 µg/mL | Cc1ccc(C)c(-c2nc(CN3CCC(C(=O)NCCCN4C[C@H](C)C[C@H](C)C4)CC3)c(C)o2)c1 [Compound 34]

Row | Sol. | Molecule
31 | 62.1 µg/mL | Cc1oc(-c2c3ccccc3cc3ccccc23)nc1CN1CCC(C(=O)NCCCN2C[C@H](C)C[C@H](C)C2)CC1 [Compound 36]
32 | >76.0 µg/mL | COc1cccc(OC)c1-c1nc(CN2CCC(C(=O)NCCCN3C[C@H](C)C[C@H](C)C3)CC2)c(C)o1 [Compound 37]
33 | >74.0 µg/mL | COc1cccc(F)c1-c1nc(CN2CCC(C(=O)NCCCN3C[C@H](C)C[C@H](C)C3)CC2)c(C)o1 [Compound 38]
34 | >76.0 µg/mL | Cc1ccc2ccccc2c1-c1nc(CN2CCC(C(=O)NCCCN3C[C@H](C)C[C@H](C)C3)CC2)c(C)o1 [Compound 39]
35 | >83.0 µg/mL | COc1cccc(Br)c1-c1nc(CN2CCC(C(=O)NCCCN3C[C@H](C)C[C@H](C)C3)CC2)c(C)o1 [Compound 40]
36 | >83.0 µg/mL | Cc1oc(-c2c(Cl)cccc2Br)nc1CN1CCC(C(=O)NCCCN2C[C@H](C)C[C@H](C)C2)CC1 [Compound 41]
37 | >76.0 µg/mL | COc1cccc(Cl)c1-c1nc(CN2CCC(C(=O)NCCCN3C[C@H](C)C[C@H](C)C3)CC2)c(C)o1 [Compound 42]
38 | 65.1 µg/mL | Cc1oc(-c2c(Cl)cccc2C(F)(F)F)nc1CN1CCC(C(=O)NCCCN2C[C@H](C)C[C@H](C)C2)CC1 [Compound 44]
39 | >73.0 µg/mL | COc1cccc(C)c1-c1nc(CN2CCC(C(=O)NCCCN3C[C@H](C)C[C@H](C)C3)CC2)c(C)o1 [Compound 45]
40 | >72.0 µg/mL | Cc1cccc(F)c1-c1nc(CN2CCC(C(=O)NCCCN3C[C@H](C)C[C@H](C)C3)CC2)c(C)o1 [Compound 46]
41 | >69.0 µg/mL | Cc1ccccc1-c1nc(CN2CCC(C(=O)NCCCN3C[C@H](C)C[C@@H](C)C3)CC2)c(C)o1 [Compound 47]
42 | >69.0 µg/mL | Cc1ccccc1-c1nc(CN2CCC(C(=O)NCCCN3CCC(C)(C)CC3)CC2)c(C)o1 [Compound 50]
43 | >69.0 µg/mL | Cc1ccccc1-c1nc(CN2CCC(C(=O)NCCCN3[C@H](C)CCC[C@@H]3C)CC2)c(C)o1 [Compound 51]
44 | >71 µg/mL | Cc1ccccc1-c1nc(CN2CCC(C(=O)NCCCN3CCCC(C(C)C)C3)CC2)c(C)o1 (centres unmarked) [Compound 52]
45 | 54.9 µg/mL | Cc1ccccc1-c1nc(CN2CCC(C(=O)NCCCN3CCCC(CC(C)C)C3)CC2)c(C)o1 (centres unmarked) [Compound 53]
46 | > .71 µg/mL | Cc1ccccc1-c1nc(CN2CCC(C(=O)NCCCN3CC4CCCC(C4)C3)CC2)c(C)o1 [Compound 54]
47 | 52.6 µg/mL | Cc1cccc(Cl)c1-c1nc(CN2CCC(C(=O)NCCCN3CCCC(C)C3)CC2)c(C)o1 (centres unmarked) [Compound 59]
48 | >74 µg/mL | Cc1cccc(Cl)c1-c1nc(CN2CCC(C(=O)NCCCN3CCC(C)(C)CC3)CC2)c(C)o1 [Compound 60]
49 | >76 µg/mL | Cc1cccc(Cl)c1-c1nc(CN2CCC(C(=O)NCCCN3CCC(C(C)C)CC3)CC2)c(C)o1 [Compound 61]
50 | >76.1 µg/mL | Cc1ccc2ccccc2c1-c1nc(CN2CCC(C(=O)NCCCN3C[C@H](C)C[C@H](C)C3)CC2)c(C)o1 [Compound 62]
51 | >71.0 µg/mL | Cc1ccccc1-c1nc(CN2CCC(C(=O)NCCCN3C[C@H](C)C[C@H](C)C3)CC2)c(C)s1 [Compound 65]
52 | >70 µg/mL | Cc1cc(-c2nc(CN3CCC(C(=O)NCCCN4C[C@H](C)C[C@H](C)C4)CC3)co2)ccc1F [Compound 70]
53 | >72 µg/mL | Cc1cc(-c2nc(CN3CCC(C(=O)NCCCN4CCC(C(C)C)CC4)CC3)co2)ccc1F [Compound 71]

Row | Molecule | Sol.
54 | Cc1ccccc1-c1nc(CN2CCC(C(=O)NCCCN3C[C@H](C)C[C@H](C)C3)CC2)c(C)o1 [Compound 25] | >69.0 µg/mL
55 | Cc1ccccc1-c1nc(CN2CCC(C(=O)NCCCN3C[C@H](C)C[C@H](C)C3)CC2)c(C)o1 [Compound 26] | >69.0 µg/mL
56 | Cc1ccccc1-c1nc(CN2CCC(C(=O)NCCCN3C[C@H](C)C[C@H](C)C3)CC2)c(C)o1 [Compound 27] | >69.0 µg/mL
57 | Cc1ccccc1-c1nc(CN2CCC(C(=O)NCCCN3C[C@H](C)C[C@H](C)C3)CC2)c(C)o1 [Compound 28] | 54.8 µg/mL
58 | Cc1ccccc1-c1nc(CN2CCC(C(=O)NCCCN3C[C@H](C)C[C@H](C)C3)CC2)c(C)o1 [Compound 29] | >69.0 µg/mL
59 | Cc1ccccc1-c1nc(CN2CCC(C(=O)NCCCN3C[C@H](C)C[C@H](C)C3)CC2)c(C)o1 [Compound 63] | 54.8 µg/mL
60 | Cc1ccccc1-c1nc(CN2CCC(C(=O)NCCCN3C[C@H](C)C[C@H](C)C3)CC2)c(C)o1 [Compound 64] | >69.0 µg/mL

Same assay, conditions: pH 7.4

Row | Molecule | Sol. [µg/mL]
61 | Cc1oc(-c2c(Cl)cccc2Cl)nc1CN1CCC(C(=O)NCCCN2C[C@H](C)C[C@H](C)C2)CC1 [Compound 35] | >77.0
62 | Cc1oc(-c2c(Br)cccc2Br)nc1CN1CCC(C(=O)NCCCN2C[C@H](C)C[C@H](C)C2)CC1 [Compound 43] | 62.4
